What was measured:
Format in all cases: in vivo, New Zealand White rabbits
[1] = tested on: rabbit corneas after 1N NaOH alkali burn injury; test: Slit lamp stromal opacity area and intensity (ImageJ) one month after alkali burn; conditions: topical 0.2 mg/ml losartan and/or 1% prednisolone acetate six times per day
Protocol: All animal treatments and care were approved by the Institutional Animal Care and Use Committee (IACUC) at the Cleveland Clinic Foundation (Cleveland, OH, USA) and the Animal Care and Use Review Office of the Department of the Army (Fort Detrick, MD). All rabbits were treated in accordance with the tenets of the ARVO Statement for the Use of Animals in Ophthalmic and Vision Research. Sixteen 10- to 15-week-old female New Zealand White rabbits weighing 2.5 to 3.0 kg each were included in this example.
Alkali injuries were produced in one eye of rabbits with previously published methods^10 using 1N sodium hydroxide (Sigma, St. Louis, MO) in balanced salt solution (BSS, 0.64% sodium chloride, 0.075% potassium chloride, 0.048% calcium chloride dihydrate, 0.03% magnesium chloride hexahydrate, 0.39% sodium acetate trihydrate, 0.17% sodium citrate dihydrate, pH 7.5, Alcon, Ft. Worth, TX) and a 5 mm diameter circular Whatman No. 1 filter paper (Cat #1001-6508, Fisher Scientific) wetted with 100 μl of 1N NaOH solution. Following the alkali burn injury, the cornea was irrigated profusely with BSS. Each injured cornea also received one drop of ciprofloxacin (Alcon, Ft. Worth, TX, USA) ten minutes after surgery and four times a day for one week and at least 15 minutes apart from the study medications.
Worth TX), at least 5 minutes apart, or 4) 50 μl of BSS.
At one month after sodium hydroxide exposure and treatments, with the rabbits under ketamine-xylazine general anesthesia, the eyes were dilated with two drops of 1% tropicamide (Akom Co., Lake Forest, IL) for thirty minutes. The study eye in each rabbit had slit lamp photographs with standardized illumination level and angle of illumination at 20× magnification with a Topcon (Oakland, NJ, USA) SL-D7 slit lamp photography system. For each study eye, the total area of opacity was determined by outlining the opacity with the freehand selection tool using ImageJ 1.53a analysis software calibrated to mm^2. The “raw internal density” in pixels for the opacified area in each cornea was also determined using ImageJ.

[2] = tested on: α-SMA-positive myofibroblasts; test: IHC for α-SMA-positive myofibroblasts, area and intensity (ImageJ) after alkali burn; conditions: one month
Protocol: One month after exposure and topical treatment, rabbits were euthanized after ketamine-xylazine general anesthesia with 100 mg/kg Beuthanasia (Shering-Plough, Kenilworth, NJ) by intravenous injection and bilateral pneumothorax. The corneo-scleral rims of eyes were removed with sharp Westcott scissors (Fairfield, CT, USA) and 0.12 forceps (Storz, St. Louis, MO). The cornea was centered in a 24×24×5 mm mold (Fisher Scientific, Pittsburgh, PA, USA) that was filled with OCT compound (Sakura Finetek, Torrance, CA, USA) and quick frozen on dry ice. Blocks were stored at −80° C. until sectioning. […]
The area of the α-SMA-positive stroma in mm^2 and the total α-SMA opacity in pixels were quantitated using standardized images obtained with a 10× objective on a Leica DM6B upright microscope equipped with an automated stage and Leica 7000 T camera using the LAS X software (Leica Microsystems, GmbH, Wetzlar, Germany). The means of three central corneal sections were analyzed from each cornea to provide the area of α-SMA-positive stroma and the total α-SMA opacity. […] In these same sections for each cornea, the total α-SMA-positive intensity in pixels was also determined with ImageJ, similarly by using the summation if separate α-SMA-positive areas were present.

collagen type IV = test: IHC collagen type IV intensity in anterior and posterior stroma after alkali burn; conditions: one month
Protocol: Multiplex immunohistochemistry (IHC) was performed using previously described methods^8 and primary antibodies (Table 7) confirmed by western blotting and IHC to recognize rabbit antigens or isotypic control antibodies (Thermo Fisher Scientific, Waltham, MA), and secondary fluorescent tagged antibodies (Table 7). The collagen type IV antibody (Cat. #AB769, Millipore, Temecula CA) was raised against purified human and bovine collagen type IV that had been affinity purified with human and bovine collagen type IV crosslinked to agarose and cross-absorbed by the manufacturer with human and bovine collagens type I, II, III, V and VI to eliminate cross-reactivity. This collagen type IV antibody was shown previously to bind rabbit collagen IV in IHC,^8,9 and recognizes the alpha-1/alpha-2 chains but not the alpha-3 to alpha-6 chains. The keratocan antibody is raised against peptide […]-OH (SEQ ID NO:1). This marker was used to identify keratocytes in situ. […] All corneas in each group had IHC for collagen type IV. Images from each cornea were converted to uniform 300 DPI, 875×568 pixel, files. […] The staining intensity within each box was determined with the analyze histogram function and the mean of three boxes was the intensity value in the anterior or posterior stroma for that cornea.

CCCCc1nc(Cl)c(CO)n1Cc1ccc(-c2ccccc2-c2nn[nH]n2)cc1 [losartan]
total corneal opacity area measured with ImageJ, vs BSS vehicle [1]: decreased | total opacity in pixels in the opacified area of cornea, vs vehicle BSS group [1]: significantly lower | total α-SMA area vs vehicle control group [2]: trend towards the losartan group being significantly different | COL IV staining intensity in the posterior stroma vs vehicle (collagen type IV): significantly different | mean intensity units of collagen type IV in the anterior stroma vs vehicle (collagen type IV): significantly decreased

From US20250367170A1, “TOPICAL ANGIOTENSIN II RECEPTOR BLOCKERS (ARBS) FOR TREATING EYE CONDITIONS” (The Cleveland Clinic Foundation, priority 2022, published 2025)
